Reference: the NIST ThermoML archive (doi:10.1021/je0201976)
Numbers after ± are expanded uncertainties.

Conditions: Liquid
[1] = Visual observation in an unstirred cell

Structure (SMILES): COCC(F)(F)C(F)(F)C(F)(F)C(F)F [1,1,2,2,3,3,4,4-octafluoro-5-methoxypentane]
- vapor or sublimation pressure (301.49 K): 2.3 ± 1.1 kPa
- vapor or sublimation pressure (312.42 K): 4 ± 1.1 kPa
- vapor or sublimation pressure (322.54 K): 6.9 ± 1.1 kPa
- vapor or sublimation pressure (332.62 K): 11.2 ± 1.2 kPa
- vapor or sublimation pressure (342.67 K): 18.1 ± 1.4 kPa
- vapor or sublimation pressure (352.72 K): 29.1 ± 1.8 kPa
- vapor or sublimation pressure (362.75 K): 48 ± 2.6 kPa
- vapor or sublimation pressure (372.79 K): 74.3 ± 3.9 kPa
- vapor or sublimation pressure (382.81 K): 106.8 ± 5.5 kPa
- vapor or sublimation pressure (392.83 K): 147.1 ± 7.5 kPa
- vapor or sublimation pressure (402.86 K): 193.8 ± 9.9 kPa
- vapor or sublimation pressure (412.89 K): 250.4 ± 13 kPa
- vapor or sublimation pressure (422.92 K): 320.1 ± 16 kPa
- vapor or sublimation pressure (432.94 K): 395.7 ± 20 kPa
- vapor or sublimation pressure (442.97 K): 482.8 ± 24 kPa
- vapor or sublimation pressure (452.99 K): 585.8 ± 29 kPa
- vapor or sublimation pressure (463 K): 710.7 ± 36 kPa
- vapor or sublimation pressure (473.04 K): 849.5 ± 42 kPa
- vapor or sublimation pressure (483.07 K): 1006.9 ± 50 kPa
- vapor or sublimation pressure (492.89 K): 1184.9 ± 59 kPa
- vapor or sublimation pressure (502.72 K): 1385.9 ± 69 kPa
- vapor or sublimation pressure (512.54 K): 1615.9 ± 80 kPa
- vapor or sublimation pressure (522.34 K): 1873.5 ± 93 kPa
- vapor or sublimation pressure (532.17 K): 2168.7 ± 110 kPa
- vapor or sublimation pressure (541.94 K): 2471.9 ± 120 kPa
- vapor or sublimation pressure (545.63 K): 2602.5 ± 130 kPa
- Critical pressure: 2392 ± 19 kPa
- Critical temperature: 546.1 ± 0.31 K

Structure (SMILES): COC(F)(F)C(F)(F)C(F)F [1,1,2,2,3,3-hexafluoro-1-methoxypropane]
- vapor or sublimation pressure (301.9 K): 22.4 ± 1.2 kPa
- vapor or sublimation pressure (312.59 K): 35 ± 1.3 kPa
- vapor or sublimation pressure (322.63 K): 52.9 ± 1.6 kPa
- vapor or sublimation pressure (332.69 K): 77 ± 2.1 kPa
- vapor or sublimation pressure (337.67 K): 92.1 ± 2.4 kPa
- vapor or sublimation pressure (342.69 K): 109.2 ± 2.8 kPa
- vapor or sublimation pressure (352.73 K): 151.1 ± 3.9 kPa
- vapor or sublimation pressure (362.74 K): 204.9 ± 5.2 kPa
- vapor or sublimation pressure (372.78 K): 273.4 ± 6.9 kPa
- vapor or sublimation pressure (382.81 K): 357.4 ± 9 kPa
- vapor or sublimation pressure (392.84 K): 458.8 ± 12 kPa
- vapor or sublimation pressure (402.87 K): 581.1 ± 14 kPa
- vapor or sublimation pressure (412.87 K): 726.2 ± 18 kPa
- vapor or sublimation pressure (422.91 K): 898.8 ± 22 kPa
- vapor or sublimation pressure (432.94 K): 1100.7 ± 27 kPa
- vapor or sublimation pressure (442.97 K): 1333.7 ± 33 kPa
- vapor or sublimation pressure (452.99 K): 1605.1 ± 40 kPa
- vapor or sublimation pressure (463.02 K): 1921.8 ± 48 kPa
- vapor or sublimation pressure (473.04 K): 2276.4 ± 57 kPa
- vapor or sublimation pressure (480.12 K): 2562.9 ± 64 kPa
- Critical pressure: 3032 ± 100 kPa
- Critical temperature: 486.98 ± 0.31 K

Structure (SMILES): FC(F)COC(F)(F)C(F)F [1,1,2,2-tetrafluoro-2-(2,2-difluoroethoxy)ethane]
- vapor or sublimation pressure (300.91 K): 12.8 ± 1 kPa
- vapor or sublimation pressure (322.65 K): 33.9 ± 1 kPa
- vapor or sublimation pressure (332.67 K): 50.8 ± 1 kPa
- vapor or sublimation pressure (342.69 K): 75 ± 1 kPa
- vapor or sublimation pressure (352.73 K): 106.1 ± 1.1 kPa
- vapor or sublimation pressure (362.73 K): 147.5 ± 1.1 kPa
- vapor or sublimation pressure (372.78 K): 202.5 ± 1.2 kPa
- vapor or sublimation pressure (382.8 K): 268.1 ± 1.3 kPa
- vapor or sublimation pressure (392.83 K): 351.4 ± 1.4 kPa
- vapor or sublimation pressure (402.87 K): 453.5 ± 1.6 kPa
- vapor or sublimation pressure (412.89 K): 576.7 ± 1.9 kPa
- vapor or sublimation pressure (422.92 K): 723.9 ± 2.3 kPa
- vapor or sublimation pressure (432.95 K): 898.2 ± 2.8 kPa
- vapor or sublimation pressure (442.97 K): 1102.4 ± 3.4 kPa
- vapor or sublimation pressure (453 K): 1341.6 ± 4.2 kPa
- vapor or sublimation pressure (463.02 K): 1615.4 ± 5 kPa
- vapor or sublimation pressure (473.05 K): 1931 ± 6 kPa
- vapor or sublimation pressure (482.09 K): 2256.7 ± 7 kPa
- vapor or sublimation pressure (491.9 K): 2658.1 ± 8.3 kPa
- vapor or sublimation pressure (497.81 K): 2932.7 ± 9.1 kPa
- vapor or sublimation pressure (501.3 K): 3101.6 ± 9.7 kPa
- Critical density: 520 ± 2 kg/m3
- Critical pressure (Direct measurement): 3090 ± 9 kPa
- Critical temperature [1]: 501.08 ± 0.08 K

Structure (SMILES): FC(F)C(F)(F)COC(F)(F)C(F)F [1,1,2,2-tetrafluoro-3-(1,1,2,2-tetrafluoroethoxy)propane]
- vapor or sublimation pressure (322.65 K): 20.9 ± 1 kPa
- vapor or sublimation pressure (332.65 K): 31.6 ± 1 kPa
- vapor or sublimation pressure (342.71 K): 46.8 ± 1 kPa
- vapor or sublimation pressure (352.73 K): 67.9 ± 1 kPa
- vapor or sublimation pressure (362.77 K): 95.4 ± 1 kPa
- vapor or sublimation pressure (372.77 K): 131.3 ± 1.1 kPa
- vapor or sublimation pressure (382.81 K): 177.3 ± 1.1 kPa
- vapor or sublimation pressure (402.88 K): 308.1 ± 1.3 kPa
- vapor or sublimation pressure (412.91 K): 395.4 ± 1.5 kPa
- vapor or sublimation pressure (422.94 K): 500.2 ± 1.8 kPa
- vapor or sublimation pressure (432.96 K): 628.3 ± 2.1 kPa
- vapor or sublimation pressure (442.99 K): 773.9 ± 2.4 kPa
- vapor or sublimation pressure (453.01 K): 946.9 ± 3 kPa
- vapor or sublimation pressure (463.24 K): 1151.4 ± 3.6 kPa
- vapor or sublimation pressure (473.06 K): 1378.5 ± 4.3 kPa
- vapor or sublimation pressure (481.12 K): 1591 ± 5 kPa
- vapor or sublimation pressure (491.9 K): 1907.6 ± 6 kPa
- vapor or sublimation pressure (501.73 K): 2245.2 ± 7 kPa
- vapor or sublimation pressure (509.65 K): 2552.5 ± 8 kPa
- Critical density: 530 ± 2 kg/m3
- Critical pressure (Direct measurement): 2581 ± 5 kPa
- Critical temperature [1]: 510.07 ± 0.08 K

Structure (SMILES): COCC(F)(F)C(F)F [1,1,2,2-tetrafluoro-3-methoxypropane]
- vapor or sublimation pressure (342.68 K): 84.8 ± 1 kPa
- vapor or sublimation pressure (347.65 K): 101.2 ± 1.1 kPa
- vapor or sublimation pressure (352.72 K): 120.5 ± 1.1 kPa
- vapor or sublimation pressure (362.75 K): 166.1 ± 1.1 kPa
- vapor or sublimation pressure (372.76 K): 222.7 ± 1.2 kPa
- vapor or sublimation pressure (382.79 K): 293.4 ± 1.3 kPa
- vapor or sublimation pressure (392.8 K): 379.9 ± 1.5 kPa
- vapor or sublimation pressure (402.8 K): 484.3 ± 1.8 kPa
- vapor or sublimation pressure (412.88 K): 610.7 ± 2.1 kPa
- vapor or sublimation pressure (422.91 K): 758.8 ± 2.5 kPa
- vapor or sublimation pressure (432.93 K): 934.8 ± 3 kPa
- vapor or sublimation pressure (442.97 K): 1138.1 ± 3.7 kPa
- vapor or sublimation pressure (452.99 K): 1373.5 ± 4.5 kPa
- vapor or sublimation pressure (463.01 K): 1642.8 ± 5.3 kPa
- vapor or sublimation pressure (473.02 K): 1952 ± 6.3 kPa
- vapor or sublimation pressure (480.13 K): 2197.3 ± 7.1 kPa
- vapor or sublimation pressure (489.95 K): 2573.3 ± 8.3 kPa
- vapor or sublimation pressure (499.77 K): 3005.9 ± 9.7 kPa
- vapor or sublimation pressure (505.06 K): 3262.8 ± 11 kPa
- vapor or sublimation pressure (505.35 K): 3278.9 ± 11 kPa
- Critical density: 453 ± 2 kg/m3
- Critical pressure (Direct measurement): 3279 ± 6 kPa
- Critical temperature [1]: 505.35 ± 0.13 K

Structure (SMILES): CC(F)(F)Cl [1-chloro-1,1-difluoroethane]
- Critical density: 442 ± 2 kg/m3
- Critical pressure (Direct measurement): 4054 ± 7 kPa
- Critical temperature [1]: 410.3 ± 0.07 K

Structure (SMILES): CCOC(F)(F)C(F)(F)C(F)(F)C(F)(F)F [1-ethoxy-1,1,2,2,3,3,4,4,4-nonafluorobutane]
- vapor or sublimation pressure (309.21 K): 22.5 ± 1 kPa
- vapor or sublimation pressure (332.68 K): 57 ± 1 kPa
- vapor or sublimation pressure (342.71 K): 80.7 ± 1 kPa
- vapor or sublimation pressure (347.73 K): 95.4 ± 1 kPa
- vapor or sublimation pressure (382.82 K): 271.9 ± 1.3 kPa
- vapor or sublimation pressure (392.84 K): 349.2 ± 1.4 kPa
- vapor or sublimation pressure (402.87 K): 443.3 ± 1.6 kPa
- vapor or sublimation pressure (412.66 K): 553.4 ± 1.9 kPa
- vapor or sublimation pressure (422.65 K): 684.8 ± 2.2 kPa
- vapor or sublimation pressure (432.89 K): 835.3 ± 2.6 kPa
- vapor or sublimation pressure (443.2 K): 1011.6 ± 3.2 kPa
- vapor or sublimation pressure (453.14 K): 1212.9 ± 3.8 kPa
- vapor or sublimation pressure (473.46 K): 1720.7 ± 5.4 kPa
- Critical density: 518 ± 2 kg/m3
- Critical pressure (Direct measurement): 1976 ± 5 kPa
- Critical temperature [1]: 482.02 ± 0.11 K

Structure (SMILES): FC(F)C(F)(F)OCC(F)(F)F [2,2,2-trifluoroethyl 1,1,2,2-tetrafluoroethyl ether]
- vapor or sublimation pressure (297.29 K): 27.8 ± 1 kPa
- vapor or sublimation pressure (313.67 K): 55.7 ± 1 kPa
- vapor or sublimation pressure (322.82 K): 79.9 ± 1 kPa
- vapor or sublimation pressure (332.69 K): 114.5 ± 1.1 kPa
- vapor or sublimation pressure (342.88 K): 162 ± 1.1 kPa
- vapor or sublimation pressure (352.74 K): 221.2 ± 1.2 kPa
- vapor or sublimation pressure (362.7 K): 296.8 ± 1.3 kPa
- vapor or sublimation pressure (372.69 K): 391.4 ± 1.5 kPa
- vapor or sublimation pressure (382.81 K): 510.6 ± 1.8 kPa
- vapor or sublimation pressure (392.83 K): 651.7 ± 2.1 kPa
- vapor or sublimation pressure (402.83 K): 821.2 ± 2.6 kPa
- vapor or sublimation pressure (413.9 K): 1046.2 ± 3.3 kPa
- vapor or sublimation pressure (422.92 K): 1260.9 ± 3.9 kPa
- vapor or sublimation pressure (432.91 K): 1536.4 ± 4.8 kPa
- vapor or sublimation pressure (442.98 K): 1859.3 ± 5.8 kPa
- vapor or sublimation pressure (452.95 K): 2231 ± 6.9 kPa
- vapor or sublimation pressure (462.99 K): 2668.5 ± 8.3 kPa
- vapor or sublimation pressure (463.89 K): 2713.3 ± 8.4 kPa
- vapor or sublimation pressure (463.94 K): 2715.8 ± 8.4 kPa
- Critical density: 541 ± 2 kg/m3
- Critical pressure (Direct measurement): 2713 ± 4 kPa
- Critical temperature [1]: 463.89 ± 0.07 K

Structure (SMILES): FC(F)OCC(F)(F)C(F)(F)F [difluoromethyl 2,2,3,3,3-pentafluoropropyl ether]
- vapor or sublimation pressure (298.42 K): 44.2 ± 1 kPa
- vapor or sublimation pressure (322.49 K): 111.5 ± 1.1 kPa
- vapor or sublimation pressure (332.63 K): 157.2 ± 1.1 kPa
- vapor or sublimation pressure (342.7 K): 216.6 ± 1.2 kPa
- vapor or sublimation pressure (352.65 K): 290.7 ± 1.3 kPa
- vapor or sublimation pressure (362.73 K): 384.1 ± 1.5 kPa
- vapor or sublimation pressure (372.78 K): 498.1 ± 1.8 kPa
- vapor or sublimation pressure (382.79 K): 637.5 ± 2.1 kPa
- vapor or sublimation pressure (392.82 K): 807.7 ± 2.5 kPa
- vapor or sublimation pressure (402.86 K): 1006.3 ± 3.2 kPa
- vapor or sublimation pressure (412.9 K): 1244.5 ± 3.9 kPa
- vapor or sublimation pressure (422.93 K): 1524.9 ± 4.8 kPa
- vapor or sublimation pressure (432.96 K): 1858.4 ± 5.8 kPa
- vapor or sublimation pressure (442.98 K): 2203.3 ± 6.9 kPa
- vapor or sublimation pressure (454.99 K): 2769 ± 8.7 kPa
- vapor or sublimation pressure (455.27 K): 2796.4 ± 8.8 kPa
- Critical density: 576 ± 2 kg/m3
- Critical pressure (Direct measurement): 2773 ± 9 kPa
- Critical temperature [1]: 455.1 ± 0.1 K
